Assay results from the supplement of paper PMC9938120.

What was measured:
Experiment in all cases: drug sensitivity score (DSS3, normalised partial AUC of % inhibition dose-response) (DSS (score)); higher = more sensitive (stronger inhibition of viability); extreme values may be limits of the assay
[1] = system: FMOC02_2 (patient-derived low-grade serous ovarian cancer cells); settings: 72 h; library: FO5A; assay format: 2D, 384-well, CellTiter-Glo
Outline: (§1)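 On 384-well flat clear-bottom plates carrying compounds at five concentrations across a 10,000-fold range, patient-derived ovarian cancer cells below passage 10 were incubated for 72 h at 37 °C with 5% CO2. CellTiter-Glo readout of viability was processed in Breeze. A higher drug sensitivity score, defined as the partial area under the percent-inhibition dose-response curve divided by the log of the upper asymptote, means greater sensitivity.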

[2] = system: FMOC02_3 (patient-derived low-grade serous ovarian cancer cells); settings: 72 h; library: FO5A; assay format: 2D, 384-well, CellTiter-Glo
Outline: as §1

[3] = system: FMOC03 (patient-derived mucinous ovarian cancer cells); settings: 72 h; library: FO5A; assay format: 2D, 384-well, CellTiter-Glo
Outline: as §1

[4] = system: FMOC06 (patient-derived mucinous ovarian cancer cells); settings: 72 h; library: FO5A; assay format: 2D, 384-well, CellTiter-Glo
Outline: as §1

[5] = system: FMOC09 (patient-derived high-grade serous ovarian cancer cells); settings: 72 h; library: FO5A; assay format: 2D, 384-well, CellTiter-Glo
Outline: as §1

[6] = system: FMOC14 (patient-derived high-grade serous ovarian cancer cells); settings: 72 h; library: FO5A; assay format: 2D, 384-well, CellTiter-Glo
Outline: as §1

[7] = system: FMOC22 (patient-derived mucinous ovarian cancer cells); settings: 72 h; library: FO5A; assay format: 2D, 384-well, CellTiter-Glo
Outline: as §1

[8] = system: FMOC24 (patient-derived high-grade serous ovarian cancer cells); settings: 72 h; library: FO5A; assay format: 2D, 384-well, CellTiter-Glo
Outline: as §1

[9] = system: FMOC25_1 (patient-derived low-grade serous ovarian cancer cells); settings: 72 h; library: FO4B; assay format: 2D, 384-well, CellTiter-Glo
Outline: as §1

[10] = system: FMOC25_2 (patient-derived low-grade serous ovarian cancer cells); settings: 72 h; library: FO5A; assay format: 2D, 384-well, CellTiter-Glo
Outline: as §1

Compound	drug sensitivity score [1]	drug sensitivity score [2]	drug sensitivity score [3]	drug sensitivity score [4]	drug sensitivity score [5]	drug sensitivity score [6]	drug sensitivity score [7]	drug sensitivity score [8]	drug sensitivity score [9]	drug sensitivity score [10]
CC(=O)[C@]1(O)Cc2c(O)c3c(c(O)c2[C@@H](O[C@H]2C[C@H](N)[C@H](O)[C@H](C)O2)C1)C(=O)c1ccccc1C3=O [Idarubicin]	7.8	9.1	4.8	5.8	6.3	6.1	7	9.4	9.2	9.1
CC/C(=C(\c1ccc(O)cc1)c1ccc(OCCN(C)C)cc1)c1ccccc1 [4-hydroxytamoxifen]	6.8	6.4	6.1	7.3	5.1	6.1	5.7	7.3	2	3.2
C=CC(=O)N1CCC(Oc2cc3c(Nc4ccc(Cl)c(Cl)c4F)ncnc3cc2OC)CC1 [Poziotinib]	24.2	21.8	24.6	6.1	16.7	6.5	0.8	2.1	10.5	20.3
Nc1ccccc1NC(=O)c1ccc(CNC(=O)OCc2cccnc2)cc1 [Entinostat]	8.6	7.5	8.2	7.6	1.6	8.6	5	8.4	4.3	3.7
CN(C)C[C@@H]1CCn2cc(c3ccccc32)C2=C(C(=O)NC2=O)c2cn(c3ccccc23)CCO1 [Ruboxistaurin]	9.7	12.8	3	8.7	7.5	6.8	3.2	6.45	5.4	9.3
CC[C@H](CC#N)OC(=O)N[C@@H](C)c1cccc(NC(=O)Nc2ccc(-c3cnco3)c(OC)c2)c1 [AVN944]	9.8	12.6	13.4	13.4	11.2	11	14.2	6.45	9.7	10.3
CNC(=O)c1nn(C)c2c1C(C)(C)Cc1cnc(Nc3ccc(N4CCN(C)CC4)cc3)nc1-2 [Milciclib]	12.5	15.1	8.6	6.8	7.6	6.3	6.2	8.25	8.5	13.1
C=CC(=O)Nc1cc(Nc2nccc(-c3cn(C)c4ccccc34)n2)c(OC)cc1N(C)CCN(C)C [Osimertinib]	15	12	11.7	4	11.3	6.1	3.3	4.35	7.3	11.2
CO[C@H]1C[C@@H]2CC[C@@H](C)[C@@](O)(O2)C(=O)C(=O)N2CCCC[C@H]2C(=O)O[C@H]([C@H](C)C[C@@H]2CC[C@@H](OCCO)[C@H](OC)C2)CC(=O)[C@H](C)/C=C(\C)[C@@H](O)[C@@H](OC)C(=O)[C@H](C)C[C@H](C)/C=C/C=C/C=C/1C [Everolimus]	10	10.2	2.8	5.8	3.9	1.7	6.7	7.5	9.2	6.7
CC1(COc2ccc3c(c2)ncn3-c2ccc3cccc(N4CCC(N)CC4)c3n2)COC1 [Crenolanib]	6.1	4.6	4.4	4.4	3	4.4	5	9.25	4.3	4.8
CO[C@H]1C(=O)[C@]2(C)[C@@H](OC)C[C@H]3OC[C@@]3(OC(C)=O)[C@H]2[C@H](OC(=O)c2ccccc2)[C@]2(O)C[C@H](OC(=O)[C@H](O)[C@@H](NC(=O)OC(C)(C)C)c3ccccc3)C(C)=C1C2(C)C [Cabazitaxel]	12.6	19.9	16	11.3	13.5	0	15.2	0.3	12	17.3
COc1ccc(C[C@H](NC(=O)[C@H](C)NC(=O)CN2CCOCC2)C(=O)N[C@@H](Cc2ccccc2)C(=O)C2(C)CO2)cc1 (stereo in doubt) [ONX-0914]	12.5	19.3	16.5	16.9	12.8	14.1	14.9	20.9	16.4	18.8
COc1ccc(-c2nc(N3CCOCC3)c3sc(CN(C)c4ncc(C(=O)NO)cn4)cc3n2)cn1 [CUDC-907]	34.3	33.2	32.8	31.2	18.4	31.4	31.1	33.7	29.2	29.1
